SMILES strings stand for the structures. A value given as a limit tells only on which side of the number the result lay.

Data set [1] relates to Zebrafish larvae. The data set is described as follows: In vivo toxicology in zebrafish larvae. As to conditions: for concentration lethal/toxic at 24 hr / overt toxicity observation: 7 dpf larvae; for overt toxicity observation: 5-20 μM, observed 1, 5 and 24 hr. The procedure: Zebrafish larvae, 7 days post-fertilization (dpf), were exposed to compounds at 20, 15, 10, and 5 μM, six larvae per compound. Animals were observed 1, 5, and 24 hr after dosing for overt toxicity (altered survival, morbidity, morphological deformity). Heart rate, behavior, and startle response were monitored at each time point.
Zebrafish (AB strain) were obtained from the Zebrafish International Resource Center (supported by P40 RR012546 from NIH—NCRR). Zebrafish were maintained and crossed according to standard methods (Westerfield, 2000). Fertilized eggs were collected and placed in E3 embryo medium and positioned in an incubator set at 28.5° C. with a 14/10-hr light/dark cycle (Kimmel et al., 1995). To determine the lethal dose of each compound, 96-well plates containing one zebrafish (7 days post-fertilization, dpf) per well in 100 μL of tank water were used. 100 μL of each compound (0.5-15 μM) was added to each well for 12 animals (one row) for a final volume of 200 μL. One row of larvae was used as dimethyl sulfoxide (DMSO)-only controls. […] All zebrafish studies were approved by the Medical University of South Carolina Institutional Animal Care and Use Committee (#180278) and performed in accordance with the guidelines.
Using a 96-well plate, 7 dpf zebrafish were placed one per well with 100 μL of tank water. 100 μL of each compound was then added to each well for 12 animals (one row) for a final volume of 200 μL. One row of zebrafish larvae was used as DMSO only controls.

In data set [2] the test system is HT22 cells. The data set is described as follows: HT22 oxytosis (glutamate-induced cell death) neuroprotection assay. The data set is classed as cell-based, mouse. As to conditions: 10 mM Glu; for EC50: Mus musculus. The procedure:
The HT22 murine hippocampal cell system was chosen as an initial phenotypic screen for neuroprotective efficacy (Andreux et al., 2013; Andreux et al., 2014; Ohlow et al., 2017; Schubert and Maher, 2012). HT22 cells exposed to high extracellular Glu ([…]) undergo oxytosis, a non-apoptotic programmed cell death involving glutathione (GSH) depletion followed by ROS accumulation, oxidative damage, and a cytotoxic signaling cascade (Tan et al., 2001). Glu blocks the −xC cystine antiporter, causing (Tan et al., 2001) cells to accumulate severe oxidative stress, mitochondrial depolarization, disrupted mitochondrial morphology, and Ca^2+ influx (Tan et al., 2001; Yang et al., 2011; Cheng et al., 2013—cellular events that may occur in neurological diseases, including epilepsy. Thus, the immortalized HT22 cell line is a well-established model of neuronal oxidative stress (Sagara and Schubert, 1998; Matsumoto et al., 1996; Albrecht et al., 2010; Ha and Park, 2006; van Leyen et al., 2005; Tobaben et al., 2011), and a verified model of neurodegeneration to screen for potential neuroprotective drugs (Albrecht et al., 2010; van Leyen et al., 2008; Lewerenz et al., 2009; Lewerenz et al., 2003).
Consistent with that work, most of the 2-amino compounds achieved protection of HT22 cells against glutamate-induced oxytosis in the nM to μM range. […] Neuroprotection based on relative cell viability compared to +Glu and −Glu control cells was measured.
The HT22 neuronal cell line is a subclone of HT4, derived from the mouse hippocampus (Morimoto and Koshland, 1990). […] The HT22 cells used in this study were kindly provided by Dr. David Schubert (The Salk Institute for Biological Studies, La Jolla, CA, USA). The cells were grown in Dulbecco's Modified Eagle's Medium (DMEM/high glucose) supplemented with 10% fetal bovine serum (Hyclone) and 5 mL of antibiotic-antimycotic (Amphotericin B, Penicillin, and Streptomycin; Invitrogen) at 37° C. in 5% CO2.
HT-22 cells were seeded onto 96-well plates at 2.5×10^3 cells per well in 75 μL of medium and maintained at 37° C. in 5% CO2 overnight prior to the initiation of experimental treatments. For glutamate toxicity testing, cells were subsequently treated with 25 μL of medium containing glutamate (monosodium glutamate, Sigma, 1 M stock concentration in media, to achieve a final concentration of 10 mM) plus compound (stock in DMSO) and maintained at 37° C. in 5% CO2 for 24 hr. CellTiter-Blue® (resazurin cell viability assay reagent) was then added to each well at a final concentration of 0.125 mg/mL. The mixture was allowed to incubate for 2-4 hr until sufficient color change occurred. Cell viability was measured as a function of resorufin fluorescence intensity using a Tecan M200 Pro spectrophotometer, 560 nm/590 nm (excitation/emission). Cell viability was calculated as a percentage compared with untreated controls. EC50s were determined using GraphPad Prism's “log(inhibitor) vs. normalized response-Variable slope” function. Morphology of HT22 cells following treatments was determined by phase-contrast microscopy.
(§1) Statistical analyses were performed with GraphPad Prism 6 software. For the in vitro HT22 oxytosis assay, dose-response data were fit using GraphPad Prism's log(inhibitor) vs normalized response-variable slope parameters to determine EC50 values and 95% confidence intervals. For the zebrafish locomotive anti-seizure activity data, multiple comparisons were made using a one-way analysis of variance (ANOVA) with a Kruskal-Wallis Test, followed by the Dunn's Method to determine significant differences between all pairs or between control and experimental groups using the Dunn Method for Joint Ranking. Differences were considered statistically significant when p<0.05. Data from zebrafish experiments are represented as scatter dot plots of individual measurements, with means±standard deviation indicated by bars.

Data set [3] concerns PTZ-induced seizure activity in zebrafish larvae. As to the kind of experiment: Zebrafish PTZ-induced seizure model. The data set is classed as in vivo. As to conditions: Danio rerio; for minimal effective concentration: 7 dpf larvae, 1 hr pre-treatment, 10 mM PTZ, read-out: Anti-seizure activity: lowest tested dose with significant difference vs PTZ-only group. The procedure:
The zebrafish PTZ-induced seizure model was used to determine the most promising compounds' in vivo efficacy. Zebrafish larvae (7 dpf) were treated with the compound for 1 hr prior to inducing seizures with PTZ. As established by previous larval zebrafish anti-seizure studies (Rahn et al., 2014; Hansen et al., 2004; Baraban et al., 2005), total distance traveled by each fish after seizure induction was measured and used as a proxy for seizure activity. Following collection of locomotor data, observation of a startle response and visual inspection for abnormal morphology confirmed that alterations in swim activity were not caused by compound toxicity.
We induced seizures in 7 dpf zebrafish larvae by the addition of […] PTZ as originally developed by Baraban et al., 2005. In a 48-well plate, one 7-dpf zebrafish was added per well. Larvae were dosed with each compound at a sub-lethal dose 1 hr prior to PTZ treatment. Two control rows were included with each experiment—tank water only control and PTZ only. Seizures were induced by adding PTZ to wells to yield a final concentration of 10 mM. After 5 min, the plate was transferred to the Daniovision instrument (Noldus Information Technology) and the chamber light was turned on. After 2 min, MediaRecorder (Noldus) was used to record video for 15 min. A small number of videos were acquired at 25 frames per second, but the majority of data were acquired at 60 frames per second. […] Ethovision XT software (Noldus) was used to track the fish movement from the video images in order to calculate the total distance traveled over 15 min. All experimental comparisons were made between animals from the same clutch.
as §1

Setting [4] is: HT-22, 24 h, HT22 cells, 24 hr, 95% CI in parentheses.
[5] abbreviates: read-out: reduction of PTZ-induced locomotor activity.

In the case of `CS(=O)(=O)Nc1cccc(C#CCNC2=CC(=O)c3ccccc3C2=O)c1` [Compound 14, N-(3-(3-((1,4-dioxo-1,4-dihydronaphthalen-2-yl)amino)prop-1-yn-1-yl)phenyl)methanesulfonamide], the “concentration lethal to all fish” value in data set [1] (after 5 hr) stood at 10 µM. Moreover, the 50% effective concentration (EC50) in data set [2] (setting [4]) is 1940 nM; in data set [2] (HT-22, HT22 cells), about 2000 nM.

With `C#CC(C)NC1=CC(=O)c2ccccc2C1=O` (racemic) [Compound 19, Rac-2-(but-3-yn-2-ylamino)naphthalene-1,4-dione], in data set [3], the minimal effective concentration is over 10 µM. For the same compound, the fish dead entry in data set [1] (10 μM, 5 hr) is listed as “⅙”. The compound further registered a toxic concentration in data set [1] (AB, zebrafish, in vivo, 5 hr) of at least 10 µM. The concentration for a half-maximal effect (EC50) is 2140 nM in data set [2] (setting [4]) and about 1500 nM in data set [2] (HT-22, HT22 cells).

Consider `CCCCC#CCNC1=CC(=O)c2ccccc2C1=O` [Compound 5, 2-(Hept-2-yn-1-ylamino)naphthalene-1,4-dione], for which the minimal effective concentration in data set [3] is at most 5 µM. The inhibition in vivo at 5 µM in data set [3] (5 μM, read-out: reduction of PTZ-induced locomotor activity) came out at 84%. Also, the inhibition in vivo at 10 µM in data set [3] (setting [5]) stood at 77%. Also, in data set [1] (24 hr), the “concentration lethal/toxic at 24 hr” value was 20 µM. Moreover, the EC50 in data set [2] (setting [4]) is 1570 nM.

For `CCCC#CCNC1=CC(=O)c2ccccc2C1=O` [Compound 4, 2-(Hex-2-yn-1-ylamino)naphthalene-1,4-dione], the minimal effective concentration in data set [3] is over 20 µM. The inhibition in vivo at 10 µM in data set [3] (setting [5]) is about 80%. In addition, the inhibition in vivo at 20 µM in data set [3] (20 μM, read-out: reduction of PTZ-induced locomotor activity) was about 80%. The fish dead result in data set [1] (10 μM, 24 hr) was “⅙”. Also, the EC50 in data set [2] (setting [4]) was 989 nM.

Consider `CCC#CCCNC1=CC(=O)c2ccccc2C1=O` [Compound 16, 2-(Hex-3-yn-1-ylamino)naphthalene-1,4-dione], for which the overt toxicity observation entry in data set [1] is listed as “acutely lethal to most fish at the lowest concentration after 1 hr”. Besides, the EC50 in data set [2] (setting [4]) is 5600 nM; in data set [2] (HT-22, HT22 cells) it was over 2000 nM.

Regarding `CN(C)CC#CCNC1=CC(=O)c2ccccc2C1=O` [Compound 7, 2-((4-(Dimethylamino)but-2-yn-1-yl)amino)naphthalene-1,4-dione], the overt toxicity observation result in data set [1] was “lethal at most concentrations”. Moreover, in data set [2] (HT22 cells), the “HT22 protection” value is “poor protection”.

Regarding `O=C1C=C(NCC#Cc2ccccc2)C(=O)c2ccccc21` [Compound 8, 2-((3-Phenylprop-2-yn-1-yl)amino)naphthalene-1,4-dione], the overt toxicity observation result in data set [1] is reported as “not lethal at any concentration”. For the same compound, the EC50 in data set [2] (HT-22, HT22 cells, 24 hr, 95% CI in parentheses) came to 162 nM.

Regarding `CC#CCCNC1=CC(=O)c2ccccc2C1=O` [Compound 15, 2-(Pent-3-yn-1-ylamino)naphthalene-1,4-dione], the overt toxicity observation entry in data set [1] is listed as “acutely lethal to most fish at the lowest concentration after 1 hr”. The EC50 in data set [2] (setting [4]) is 2910 nM; in data set [2] (HT-22, HT22 cells), over 2000 nM.

In the case of `CC#CCNC1=CC(=O)c2ccccc2C1=O` [Compound 2, 2-(But-2-yn-1-ylamino)naphthalene-1,4-dione], the minimal effective concentration in data set [3] is over 20 µM. Further, the inhibition in vivo at 40 µM in data set [3] (40 μM, read-out: reduction of PTZ-induced locomotor activity) amounted to 89%. For the same compound, the fish dead entry in data set [1] (5 μM, 24 hr) is “⅚”. Moreover, the “concentration lethal/toxic at 24 hr” value in data set [1] (24 hr) is at least 10 µM. Moreover, in data set [2] (setting [4]), the EC50 amounted to 1220 nM.

As usually defined, the EC50 is the concentration needed to bring the measured effect to its halfway point.
